The subject of data set [1] is herpesvirus. The data set is described as follows: Inhibition studies of herpesvirus replication by the compounds exemplified. In kind it is cell-based. Particulars: summary table, read-out: ED50 (the source's name). On the procedure: (§1) The following procedures were then used to determine inhibitory effects of the compound of example 1 on the replication of HSV-1, strain F. First, confluent monolayers of the African green monkey kidney cell line, Vero (ATCC 733-VR CCL 81) in 24 well cell culture plates were pretreated with specified concentrations (0 μM, 0.5 μM, 1 μM, 5 μM, 10 μM, 20 μM and 50 μM) of ALX-19 at 37° C., 5% CO2 for 24 hours. This was accomplished by diluting the stock solution of the test compound in growth medium (10% fetal bovine serum, 100 IU/ml penicillin, 100 μg/ml streptomycin and 0.02 mg/ml gentamicin in Dulbecco's MEM (DMEM)) used to overlay the monolayers.
(§2) After pretreatment with the test compound, the monolayers were overlaid with 0.1 ml of diluted virus stock at about 20 pfu/well. Virus was then allowed to absorb for 1 hours at 37° C. The virus inoculum was removed and the monolayers were overlaid with DMEM containing 2% FBS and the specified concentrations of the test compound. Virus was next allowed to replicate for 48 hours and then the monolayers were fixed and stained with a solution of 1% crystal violet in 70% ethanol:formalin:acetic acid (20:2:1). Finally, plaques (each representing a single infectious virus particule or plaque forming unit (PFU) were counted and checked microscopically. The results were as follows:
A procedure similar to that described in Example 3 was conducted to determine the anti-viral activity of the compound of example 2. In the case, however, the concentrations of the test compound used to pretreat the MRC-5 cells were 0 μM, 1 μM, 10 μM, 100 μM and 500 μM, respectively. The following results were obtain on infection and incubation of the treated cells:
The following table illustrates results obtained in inhibition and cytotoxicity studies of herpesvirus replication by the compounds exemplified.

For data set [2], the system named is herpesvirus. It counts as cell-based. On the procedure: The therapeutic index of this compound, i.e. the ratio of its cytotoxicity to its viral toxicity, was determined to be 12.29. The following table illustrates results obtained in inhibition and cytotoxicity studies of herpesvirus replication by the compounds exemplified.
A further data set has as its system HSV-1, strain F. The data set is described as follows: Plaque reduction assay, inhibition of HSV-1 strain F replication by the compound of example 1 (Vero cells). It counts as cell-based, herpes simplex virus type 1. Particulars: for Plaque number: Vero, 24 h pretreatment, 48 h, untreated 19.
Excerpt: (§3) The present invention provides novel di-guanidino-substituted compounds having anti-herpesvirus activity. The term "anti-herpesvirus" as used herein refers to those compounds which inhibit replication of a member of the herpesvirus family as determined by conventional cell culture assay, such as the well established plaque reduction assay. In the context of the plaque reduction assay, for example, the anti-herpesvirus nature of a compound in accordance with the present invention is indicated by a reduction in plaque count, or a reduction in plaque size, following treatment of virally infected cells with the given compound, relative to a virally infected, untreated control.
The compound of example 1 was formulated as a 10 mM stock in water for in vitro and cell culture procedures. The stock was then diluted into buffers used for specific assays, or into cell culture media.
as §1
as §2, with “follows: […]” for “follows:”
On the technique in general: Plaques are areas of infected cells; plaque reduction assays count them against a control.

For another data set, the system named is herpes simplex virus. Nature of the data set: Plaque reduction assay, inhibition of herpesvirus replication by the compound of example 2 (MRC-5 cells). It counts as cell-based. Particulars: for Plaque number: untreated 19.
Excerpt: as §3, §1, §2
A procedure similar to that described in Example 3 was conducted to determine the anti-viral activity of the compound of example 2. In the case, however, the concentrations of the test compound used to pretreat the MRC-5 cells were 0 μM, 1 μM, 10 μM, 100 μM and 500 μM, respectively. The following results were obtain on infection and incubation of the treated cells: […]

Some results are limits rather than exact numbers.

Regarding `CCOCCOCCOC1CC[C@H](OCCCNC(=N)N)[C@@H](COCCCNC(=N)N)O1` (stereo partly drawn) [Example 8, (ethoxy-ethoxy-ethyl)-4,6-di-O-propylguanidine-2,3-dideoxy-d-erythrohexoside], in the data set on herpesvirus [1], the EC50 was 10 µM. Moreover, in the data set on herpesvirus [2], the TI is given as more than 20.

On to `N=C(N)NCCCOC[C@H]1OCCC[C@@H]1OCCCNC(=N)N` [Example 9, 4,6-di-O-propylguanidine-3-deoxy dihydro-D-glucal], for which, in the data set on herpesvirus [1], the EC50 is approximately 50 µM. Moreover, in the data set on herpesvirus [2], the TI is recorded as ~ 350.

As for `CCOC1CC[C@H](OCCCNC(=N)N)[C@@H](COCCCNC(=N)N)O1` (stereo partly drawn) [Example 5, ethyl-4,6-di-O-propylguanidine-2,3-dideoxy-hexoside], in the data set on herpesvirus [1], the EC50 was 2.5 µM. The TI in the data set on herpesvirus [2] is reported as 9.96.

By IC50 is commonly meant the concentration at which inhibition is half-maximal. With `COC1CC[C@H](OCCCNC(=N)N)[C@@H](COCCCNC(=N)N)O1` (stereo partly drawn) [Example 1, Methyl-4,6-di-O-propylguanidine-2,3-dideoxy-α,β-D-erythro-hexoside], the EC50 in the data set on herpesvirus [1] came to 2.6 µM. Also, the Plaque number in the data set on HSV-1, strain F (0.5 μM, HSV-1 strain F) turned out to be 18; with HSV-1, strain F (1 μM, HSV-1 strain F) it was 16; in the data set on HSV-1, strain F (5 μM, HSV-1 strain F), 6; with HSV-1, strain F (10 μM, HSV-1 strain F) it was 4; with HSV-1, strain F (20 μM, HSV-1 strain F) it was 1. Further, the IC50 in the data set on HSV-1, strain F (Human alphaherpesvirus 1, HSV-1 strain F, Vero cells, plaque reduction) is 2.6 µM. For the same compound, in the data set on HSV-1, strain F (concentration of more than 1 μM), the “reduction in the replication of herpes simplex virus” value was “significant reduction”. The compound further returned a TI in the data set on herpesvirus [2] of 12.29. In addition, in the data set with herpesvirus [2], the “therapeutic index, ratio of cytotoxicity to viral toxicity” value was determined as 12.29.

As to `CCOC1CC[C@H](OCCCCCNC(=N)N)[C@@H](COCCCCCNC(=N)N)O1` (stereo partly drawn) [Example 6, ethyl-4,6-di-O-pentylguanidine-2,3-dideoxy-hexoside], the EC50 in the data set with herpesvirus [1] was 9.3 µM. The compound further returned a TI in the data set with herpesvirus [2] of 17.28.

On to `N=C(N)NCCCOC[C@H]1OC(OCCCNC(=N)N)CC[C@@H]1OCCCNC(=N)N` (stereo partly drawn) [Example 2, 1,4,6-tri-O-propylguanidine-2,3-dideoxy-hexoside], for which the Plaque number is 18 with herpes simplex virus (0.5 μM, MRC-5 cells); 16 in the data set on herpes simplex virus (1 μM, MRC-5 cells); 11 with herpes simplex virus (5 μM, MRC-5 cells); 9 in the data set with herpes simplex virus (10 μM, MRC-5 cells); 6 with herpes simplex virus (20 μM, MRC-5 cells); 5 in the data set on herpes simplex virus (50 μM, MRC-5 cells). Moreover, the EC50 in the data set with herpes simplex virus (MRC5, MRC-5 cells, plaque reduction, read-out: ED50 (the source's name)) was determined as 10.5 µM; with herpesvirus [1], 10.5 µM. For the same compound, in the data set on herpes simplex virus (concentration of 1 μM or more), the “reduction in the replication of herpes simplex virus” value is “significant reduction”. In the data set on herpesvirus [2], this compound yielded a TI of more than 50. For the same compound, the “therapeutic index, ratio of cytotoxicity to viral toxicity” value in the data set on herpesvirus [2] is reported as more than 50.

For the compound `CC(C)OC1CC[C@H](OCCCCCNC(=N)N)[C@@H](COCCCCCNC(=N)N)O1` (stereo partly drawn) [Example 7, isopropyl-4,6-di-O-pentylguanidine-2,3-dideoxy-D-erythro-hexoside], in the data set on herpesvirus [1], the EC50 was determined as 6.45 µM. Besides, the TI with herpesvirus [2] was 5.17.

Take `N=C(N)NCCCOC[C@H]1OC(OCCO)CC[C@@H]1OCCCNC(=N)N` (stereo partly drawn) [Example 10, hydroxyethyl-4,6-di-O-propylguanidine-2,3-dideoxy-hexoside]: in the data set on herpesvirus [1], the EC50 stood at 10.8 µM. Besides, the TI with herpesvirus [2] is 31.22.

The values are drawn from US5627194A, “Anti-viral guanidino-substituted compounds” (Allelix Biopharmaceuticals Inc., priority 1994, dated 1997).
